10 compounds from PubChem BioAssay (NCI) can be followed below.

Test systems include NCI-H226 lung; SK-MEL-2 melanoma; HCT-116 colon; MDA-MB-231 breast; CAKI-1 renal; PC-3 prostate; NCI-H522 lung; HL-60(TB) leukemia; MOLT-4 leukemia; SR leukemia.
What all share (assay): inhibition of tumour cell growth, NCI panel, 48 h

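Where inhibition never reached the appropriate level, the endpoint shown equals the highest concentration tested. Otherwise, values were interpolated linearly from a five-concentration, 48-hour dose response in 96-well plates. GI50 = concentration required for 50% inhibition of growth. The concentration for full growth arrest is given as TGI.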

Take `N#CCCN1C/C(=C/c2ccc(Cl)cc2)C(=O)/C(=C/c2ccc(Cl)cc2)C1`: the GI50 in the test with NCI-H226 lung is 2.35 µM; in the test on SK-MEL-2 melanoma, 2.19 µM; in the test with HCT-116 colon, 0.25 µM; with MDA-MB-231 breast, 2.01 µM; with CAKI-1 renal, 2.95 µM; in the test on PC-3 prostate, 0.489 µM. For the same compound, the GI50 with NCI-H522 lung was 1.77 µM; in the test on HL-60(TB) leukemia, 2.12 µM; in the test with MOLT-4 leukemia it was 1.94 µM. Moreover, the TGI with NCI-H226 lung came to 8.48 µM; in the test with SK-MEL-2 melanoma, 4.88 µM; with HCT-116 colon, 0.59 µM; in the test with MDA-MB-231 breast, 7.44 µM; with CAKI-1 renal it was 12 µM; with PC-3 prostate, 3.61 µM. Moreover, the results for the TGI in the test on NCI-H522 lung, with HL-60(TB) leukemia and in the test with MOLT-4 leukemia were 3.41 µM, 7.38 µM and 8.39 µM, respectively.
As to `O=C(O)Cc1cccnc1`, the TGI in the test on NCI-H226 lung, in the test on SK-MEL-2 melanoma, in the test on HCT-116 colon, in the test on MDA-MB-231 breast, in the test with CAKI-1 renal and in the test on SR leukemia was above 100 µM each time. For the same compound, the TGI in the test with PC-3 prostate, in the test on NCI-H522 lung and in the test with MOLT-4 leukemia was above 100 µM each time.
`Cc1cc(N(CCCNc2ccnc3cc(Cl)ccc23)Cc2ccco2)nc(N2CCN(C)CC2)n1`: the GI50 is 12.4 µM in the test with NCI-H226 lung; 1.95 µM in the test on SK-MEL-2 melanoma; 2.48 µM in the test with HCT-116 colon; 2.63 µM in the test with MDA-MB-231 breast; 2.08 µM with SR leukemia; 4.12 µM with PC-3 prostate. The GI50 in the test on NCI-H522 lung is 3.62 µM; in the test with HL-60(TB) leukemia, 2.06 µM; with MOLT-4 leukemia it was 2.74 µM. Further, the TGI in the test with NCI-H226 lung is 24.8 µM; in the test on SK-MEL-2 melanoma it was 4.21 µM; in the test on HCT-116 colon it was 10.7 µM; in the test on MDA-MB-231 breast it was 8.72 µM; in the test on SR leukemia, 5.62 µM; in the test with PC-3 prostate, 17.3 µM. The TGI was 14.4 µM in the test on NCI-H522 lung, 4.37 µM in the test on HL-60(TB) leukemia and 14 µM in the test with MOLT-4 leukemia.
`Cc1ccc(-c2nc([P+](c3ccccc3)(c3ccccc3)c3ccccc3)c(S(=O)(=O)c3ccc(C)cc3)o2)cc1`: the GI50 with NCI-H226 lung was 5.05 µM; in the test with SK-MEL-2 melanoma, 2.17 µM; in the test with HCT-116 colon, 1.37 µM; in the test with MDA-MB-231 breast, 1.52 µM; with CAKI-1 renal it was 1.36 µM; in the test with PC-3 prostate, 1.43 µM. In addition, the GI50 in the test on NCI-H522 lung is 1.6 µM; in the test on HL-60(TB) leukemia, 1.67 µM; with MOLT-4 leukemia, 1.06 µM. Besides, the TGI with NCI-H226 lung worked out at 24.6 µM; with SK-MEL-2 melanoma it was 4.41 µM; with HCT-116 colon, 2.75 µM; with MDA-MB-231 breast it was 2.93 µM; with CAKI-1 renal, 2.71 µM; in the test with PC-3 prostate, 3.28 µM. Moreover, the TGI in the test on NCI-H522 lung was determined as 3.67 µM; in the test with HL-60(TB) leukemia, 4.38 µM; in the test with MOLT-4 leukemia it was 4.63 µM.
For `O=C(Nc1cccc(-n2cc(-c3ccncc3)c(-c3cc(O)cc(Cl)c3)n2)c1)c1cc(C(F)(F)F)cc(C(F)(F)F)c1`, the GI50 in the test on NCI-H226 lung is 16.1 µM; in the test with SK-MEL-2 melanoma, 3.28 µM; in the test on HCT-116 colon, 3.23 µM; in the test on MDA-MB-231 breast, 1.42 µM; in the test with CAKI-1 renal it was 3.67 µM; in the test with SR leukemia it was 1.61 µM. Also, the GI50 is 2.28 µM in the test with PC-3 prostate, 1.6 µM with NCI-H522 lung and 2.38 µM with MOLT-4 leukemia. Besides, the TGI in the test with NCI-H226 lung was above 100 µM; with SK-MEL-2 melanoma it was 9.51 µM; in the test on HCT-116 colon it was above 100 µM; in the test on MDA-MB-231 breast, 3.32 µM; in the test on CAKI-1 renal, above 100 µM; with SR leukemia, 5.01 µM. Besides, the values for the TGI in the test with PC-3 prostate, in the test with NCI-H522 lung and in the test with MOLT-4 leukemia were 22.5 µM, 8.37 µM and above 100 µM, respectively.
With `O=C(O)c1cccc(C(=O)O)c1S(=O)Cc1ccccc1` (stereo not given), the TGI in the test on NCI-H226 lung, in the test with SK-MEL-2 melanoma, in the test with HCT-116 colon, in the test with MDA-MB-231 breast, in the test on CAKI-1 renal and in the test with SR leukemia was above 100 µM each time. Further, the TGI in the test on PC-3 prostate, in the test with NCI-H522 lung and in the test on HL-60(TB) leukemia was above 100 µM in each case.
Turning to `COc1cc2c(cc1OC)-c1ncc3c(OC)c(OC)c(OC)cc3c1C2`, the GI50 is 0.0541 µM in the test on SK-MEL-2 melanoma; 8.81 µM in the test with HCT-116 colon; 0.404 µM in the test with MDA-MB-231 breast; 55.2 µM in the test on CAKI-1 renal; 0.609 µM with SR leukemia; above 100 µM in the test with PC-3 prostate. Further, in the test on HL-60(TB) leukemia, the GI50 is 10.2 µM. The TGI was 23.5 µM in the test on SK-MEL-2 melanoma; 64.7 µM with HCT-116 colon; 11.6 µM with MDA-MB-231 breast; above 100 µM in the test with CAKI-1 renal; 2.47 µM in the test with SR leukemia; above 100 µM in the test on PC-3 prostate. In the test on HL-60(TB) leukemia, this compound gave a TGI above 100 µM.
For `C[N+](C)(C)CC1CCCC1=O` (stereo not given), the TGI came out at 34.6 µM in the test on NCI-H226 lung; 12.2 µM in the test on SK-MEL-2 melanoma; 3.74 µM in the test with HCT-116 colon; 2.77 µM in the test on MDA-MB-231 breast; 6.61 µM in the test on CAKI-1 renal; 2.91 µM with PC-3 prostate. For the same compound, the results for the TGI with NCI-H522 lung, in the test with HL-60(TB) leukemia and in the test with MOLT-4 leukemia were 0.0171 µM, above 20.2 µM and 4.4 µM, respectively.
With `CC(C)(O)CNc1nc(Nc2ccnc(C(F)(F)F)c2)nc(-c2cccc(C(F)(F)F)n2)n1`, the GI50 is 20.8 µM in the test with NCI-H226 lung; 17.6 µM in the test on HCT-116 colon; 19.1 µM in the test on MDA-MB-231 breast; 29.6 µM in the test on CAKI-1 renal; 18.3 µM with SR leukemia; 27.4 µM with PC-3 prostate. The GI50 is 18.6 µM in the test on NCI-H522 lung, 21.1 µM in the test on HL-60(TB) leukemia and 13.7 µM in the test with MOLT-4 leukemia. The TGI is 58.2 µM with NCI-H226 lung; 44.5 µM in the test on HCT-116 colon; 45.6 µM with MDA-MB-231 breast; above 100 µM in the test with CAKI-1 renal; 90.9 µM in the test with SR leukemia; above 100 µM in the test on PC-3 prostate. In addition, the TGI is 49.3 µM in the test on NCI-H522 lung, 58.2 µM in the test with HL-60(TB) leukemia and 41.8 µM in the test with MOLT-4 leukemia.
Take `c1ccc(CCc2cccnc2)nc1`: the TGI in the test on NCI-H226 lung, with SK-MEL-2 melanoma, in the test on HCT-116 colon, in the test on MDA-MB-231 breast, in the test on CAKI-1 renal and in the test with SR leukemia was above 100 µM in each case. Further, the TGI in the test on PC-3 prostate, in the test with NCI-H522 lung and in the test with MOLT-4 leukemia was above 100 µM each time.
